In patent publication US20090203685A1, “ANTI-PROLIFERATIVE COMPOUNDS FROM A 3-ARYL-COUMARINE OR 3-ARYL-QUINOLIN-2-ONE AND USES THEREOF” (EOS (ETHICAL ONCOLOGY SCIENCE) S.P.A., priority 2006, published 2009):
Counter-ions that a name gives are not always drawn.

What was measured:
[1] = tested on: U937 cells; test: Proliferation test ViaLight HS, U937 cells (Example 8); type: cell-based, human; conditions: 72 h incubation, range = multiple experiments, otherwise individual experiments
Experimental: 2C Proliferation test ViaLight® HS High Sensitivity Cytotoxicity and Cell Proliferation BioAssay Kit
This protocol allows the determination of the cytostatic and cytotoxic activities of compounds to be tested on mammalian cells in culture and was carried out essentially according to the manufacturer's recommendations.
Cells are suspended in 15 mL of their respective media and are enumerated. They are then diluted in their media in order to obtain: • 2500 cells per 90 μL per well for MRC5 cells • 5000 cells per 90 μL per well for all other cell lines. Cells are then seeded in a 96 well plate, and incubated at least 4 hours in the incubator at 37° C. in 5% CO2.
The molecules to be tested are diluted in DMEM with DMSO in order to obtain the following dilutions: • dilution at 250 μM/1% DMSO • dilution at 50 μM/1% DMSO • dilution at […] • dilution at 2 μM/1% DMSO • dilution at 400 nM/1% DMSO • dilution at 80 nM/1% DMSO For each well comprising 90 μL of cell suspension, 10 μL of a solution of the compound to be tested is added, with the 6 different concentrations. The plate is then incubated during 72 hours. One control plate is contacted with 10 μL of DMEM 1% DMSO, without compound to be tested. 50 μL of lysis buffer (test Vialight® lysis buffer) is added in each well of the control plate and the plate is incubated 10 minutes under hood.
Then, 100 μL of test buffer (test Vialight® test buffer) is added in each well and the control plate is incubated during 2 minutes. The luminescence is read in each well. The mean luminescence for each type of cells is called T0.
After the 72 h incubation, in order to determine the viability, 50 μL of lysis buffer (test Vialight® lysis buffer) is added in each well of the plates and the plates are incubated 10 minutes under hood.
Then, 100 μL of test buffer (test Vialight® test buffer) is added in each well and the plates are incubated during 2 minutes. The luminescence is read in each well. For each type of cell, the mean luminescence in the well not containing the compound is called C72 and the mean luminescence in well containing a given concentration of a compound to be tested is called T72. For each dilution (concentration of compound to be tested), T0 and T72 values are compared.
The graph is plotted for the different concentrations of compound and • GI50 (50% of growth inhibitory) is determined, this is the dose producing 50% of cell growth (intersection at Y=50); • TGI (total growth inhibitory) is determined on the graph, this is the dose producing the total arrest of the cell growth (intersection at Y=0); and • LC50 (50% of lethal concentration) is determined, this is the dose producing the death of 50% of the cells (intersection at Y=−50).
Following the protocol described in Example 2C, different compounds according to the invention have been tested for their cytostatic and cytotoxic activities on mammalian cells in culture (specifically U937 cells).
The GI50 (50% of growth inhibitory) has been determined for all the following compounds, i.e. the dose producing 50% of cell growth inhibition.
Where the GI50 provided is in the form of a range, it means that multiple experiments, whose results fall within the range indicated, were performed. Otherwise, results of individual experiments are provided.

[2] = target: T1, interaction between 6×His-Bcl-xL and GST-BF8 (Homo sapiens, UniProt Q07817); test: Pull down assay, Bcl-xL/BF8 in vitro interaction; type: binding; conditions: 50 μM, 5% DMSO; Western blot
T1 construct: made in house; host or cells: E. coli
T1 sequence (Q07817 whole entry): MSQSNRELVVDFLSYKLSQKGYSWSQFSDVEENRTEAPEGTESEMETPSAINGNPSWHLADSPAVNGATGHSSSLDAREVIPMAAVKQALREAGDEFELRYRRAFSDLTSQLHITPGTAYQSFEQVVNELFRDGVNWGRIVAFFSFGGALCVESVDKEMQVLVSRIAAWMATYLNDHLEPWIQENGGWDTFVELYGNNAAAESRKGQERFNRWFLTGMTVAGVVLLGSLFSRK
Experimental: FIG. 3: Inhibition of the interaction between Bcl-xL and BF8, a peptide aptamer that targets the hydrophobic groove of BCL-2 family members. […]
C+: 6×His-Bcl-xL captured by GST-BF8, in presence of 5% DMSO. (02): 6×His-Bcl-xL captured by GST-BF8, in presence of 50 μM of compound 02 (in 5% DMSO). (01): 6×His-Bcl-xL captured by GST-BF8, in presence of 50 μM of compound 01 (in 5% DMSO).
A peptide aptamer (dubbed BF8) has been selected against the anti-apoptotic protein Bfl1, member of the BCL-2 family. […] Two lines of evidence indicate that BF8 binds the hydrophobic groove of anti-apoptotic BCL-2-like proteins. First, the amino-acid sequence of its variable region bears similarities with the sequence of the BH3 domains of pro-apoptotic members of the BCL-2 family (such as Bak or Bax), known to bind the anti-apoptotic proteins via this hydrophobic groove. Second, BF8 no longer binds a mutated variant of Bfl-1 that bears an amino-acid substitution within the said hydrophobic groove.
A Bcl-xL/BF8 in vitro interaction assay was developed to examine the capacity of the compounds of the invention to disrupt this interaction by competition with the peptide aptamer. 6×His-Bcl-xL and GST-BF8 recombinant fusion proteins were expressed in E. coli and purified using affinity chromatography. […]

[3] = tested on: small cell lung carcinoma (SCLC) and lymphoid cells; conditions: cited from earlier work
[4] = tested on: SCLC tumor; conditions: in vivo; cited from earlier work
[5] = in vivo; cited from earlier work
[6] = tested on: melanoma, breast, cervical, prostate, colon tumor cells; conditions: cited from earlier work

Compound: COc1cc(NC(=S)NC(=O)c2ccccc2)ccc1-c1cc2ccccc2oc1=O [Compound 02, N-({[3-methoxy-4-(2-oxo-2H-chromen-3-yl)phenyl]amino}carbonothioyl)benzamide]
- GI50 ([1]; Homo sapiens, U-937, 72 h): 600 to 860 nM
- Inhibition of the in vitro interaction between 6×His-Bcl-xL and GST-BF8 [2]: inhibit

Compound: CN(C)CC[C@H](CSc1ccccc1)Nc1ccc(S(=O)(=O)NC(=O)c2ccc(N3CCN(Cc4ccccc4-c4ccc(Cl)cc4)CC3)cc2)cc1[N+](=O)[O-] [ABT-737]
- Apoptosis of SCLC and lymphoid cells [3]: induces apoptosis
- SCLC tumor regression in mouse models [4]: induces SCLC tumor regression

Compound: COC1=CC(c2cc3ccccc3[nH]2)=N/C1=C\c1[nH]c(C)cc1C [GX15-070]
- MTD (maximal tolerated dose) [5]: approx 16 mg/kg
- Growth of melanoma, breast, cervical, prostate, colon tumor cells [6]: inhibit growth

Compound: COc1cc(/N=C(/NC(=O)/C=C/c2ccco2)SC)ccc1-c1cc2ccccc2oc1=O [Compound 14, methyl N-[(2E)-3-(2-furyl)prop-2-enoyl]-Ar-[3-methoxy-4-(2-oxo-2H-chromen-3-yl)phenyl]imidothiocarbamate]
- GI50 ([1]; Homo sapiens, U-937, 72 h): 220 nM

Compound: COc1cc(NC(=S)NC(=O)c2ccc(F)cc2)ccc1-c1cc2ccccc2oc1=O [Compound 05, 4-fluoro-N-({[3-methoxy-4-(2-oxo-2H-chromen-3-yl)phenyl]amino}carbonothioyl)benzamide]
- GI50 [1]: 1500 nM
- GI50 ([1]; Homo sapiens, U-937, 72 h): 920 nM

Compound: COc1cc(NC(=O)Nc2cccc(N(C)C)c2)ccc1-c1cc2ccccc2oc1=O [Compound 18, 1-(3-dimethylamino-phenyl)-3-[3-methoxy-4-(2-oxo-2H-chromen-3-yl)-phenyl]-urea.HCl]
- GI50 ([1]; Homo sapiens, U-937, 72 h): 150 nM

Compound: COC(=O)c1ccc(S(=O)(=O)Nc2ccc(-c3cc4ccccc4oc3=O)c(OC)c2)n1C [Compound 09, methyl 5-({[3-methoxy-4-(2-oxo-2H-chromen-3-yl)phenyl]amino}sulfonyl)-1-methyl-1H-pyrrole-2-carboxylate]
- GI50 ([1]; Homo sapiens, U-937, 72 h): 500 to 600 nM
